{
  "source": "patent US20070049564A1",
  "about": "(Wyeth, priority 2005, published 2007)",
  "experiment_in_all_cases": "MIC, broth microdilution",
  "key": {"E. coli GC 2231": {"tested_on": "E. coli GC 2231", "details": "Escherichia coli"}, "S. aureus GC 1079": {"tested_on": "S. aureus GC 1079", "details": "Staphylococcus aureus"}, "S. aureus GC 1131": {"tested_on": "S. aureus GC 1131", "details": "Staphylococcus aureus"}, "S. aureus GC 6335": {"tested_on": "S. aureus GC 6335", "details": "Staphylococcus aureus"}, "S. pyogenes GC 4563": {"tested_on": "S. pyogenes GC 4563", "details": "Streptococcus pyogenes"}, "E. faecalis GC 2267": {"tested_on": "E. faecalis GC 2267", "details": "Enterococcus faecalis"}, "S. pneumoniae+ GC 4465": {"tested_on": "S. pneumoniae+ GC 4465", "details": "Streptococcus pneumoniae"}, "E. faecium GC 2243": {"tested_on": "E. faecium GC 2243", "details": "Enterococcus faecium"}, "S. typhimurium GC 2172": {"tested_on": "S. typhimurium GC 2172", "details": "Salmonella enterica, TYPHIMURIUM"}, "E. coli GC 2232": {"tested_on": "E. coli GC 2232", "details": "Escherichia coli"}, "S. aureus GC 6466": {"tested_on": "S. aureus GC 6466", "details": "Staphylococcus aureus"}, "S. pneumoniae* GC 4465": {"tested_on": "S. pneumoniae* GC 4465", "details": "Streptococcus pneumoniae"}, "E. coli GC 3226": {"tested_on": "E. coli GC 3226", "details": "Escherichia coli"}, "S. epidermidis GC 4935": {"tested_on": "S. epidermidis GC 4935", "details": "Staphylococcus epidermidis"}, "c. albicans GC 3066": {"tested_on": "c. albicans GC 3066"}, "E. coli GC 2272": {"tested_on": "E. coli GC 2272", "details": "Escherichia coli"}, "S. aureus GC 2216": {"tested_on": "S. aureus GC 2216", "details": "Staphylococcus aureus"}, "E. faecium GC 4556": {"tested_on": "E. faecium GC 4556", "details": "Enterococcus faecium"}, "E. coli GC 2234": {"tested_on": "E. coli GC 2234", "details": "Escherichia coli"}},
  "data": [
    {"smiles": "CCCCC(=O)OCOC(=O)N(CC(=O)Nc1cc(N(C)C)c2c(c1O)C(=O)C1=C(O)[C@]3(O)C(=O)C(C(N)=O)=C(O)[C@@H](N(C)C)[C@@H]3C[C@@H]1C2)C(C)(C)C", "note": "[Example 61, ({[(2-{[(5aR,6aS,7S,10aS)-9-(aminocarbonyl)-4,7-bis(dimethylamino)-1,8,10a,11-tetrahydroxy-10,12-dioxo-5,5a,6,6a,7,10,10a,12-octahydrotetracen-2-yl]amino}-2-oxoethyl)(tert-butyl)amino]carbonyl}oxy)methyl pentanoate]", "values": [
      {"measurement": "MIC", "setting": "E. coli GC 2231; GC2231, pre-incubation in human serum", "value": 8, "unit": "µg/mL"},
      {"measurement": "MIC", "setting": "E. coli GC 2231; GC2231, pre-incubation in mouse serum", "value": 1, "unit": "µg/mL"},
      {"measurement": "MIC", "setting": "E. coli GC 2231; GC2231, pre-incubation in water", "value": 32, "unit": "µg/mL"},
      {"measurement": "MIC", "setting": "S. aureus GC 1079; GC1079, pre-incubation in human serum", "value": 0.5, "unit": "µg/mL"},
      {"measurement": "MIC", "setting": "S. aureus GC 1079; GC1079, pre-incubation in mouse serum", "value": 0.25, "unit": "µg/mL"},
      {"measurement": "MIC", "setting": "S. aureus GC 1079; GC1079, pre-incubation in water", "value": 1, "unit": "µg/mL"},
      {"measurement": "MIC", "setting": "S. aureus GC 1131; GC1131, pre-incubation in human serum", "value": 0.5, "unit": "µg/mL"},
      {"measurement": "MIC", "setting": "S. aureus GC 1131; GC1131, pre-incubation in mouse serum", "value": 0.5, "unit": "µg/mL"},
      {"measurement": "MIC", "setting": "S. aureus GC 1131; GC1131, pre-incubation in water", "value": 0.5, "unit": "µg/mL"},
      {"measurement": "MIC", "setting": "S. aureus GC 6335; GC6335, pre-incubation in human serum", "value": 1, "unit": "µg/mL"},
      {"measurement": "MIC", "setting": "S. aureus GC 6335; GC6335, pre-incubation in mouse serum", "value": 0.5, "unit": "µg/mL"},
      {"measurement": "MIC", "setting": "S. aureus GC 6335; GC6335, pre-incubation in water", "value": 1, "unit": "µg/mL"},
      {"measurement": "MIC", "setting": "S. pyogenes GC 4563; GC4563, pre-incubation in human serum", "value": 0.25, "unit": "µg/mL"},
      {"measurement": "MIC", "setting": "S. pyogenes GC 4563; GC4563, pre-incubation in mouse serum", "value": 0.25, "unit": "µg/mL"},
      {"measurement": "MIC", "setting": "S. pyogenes GC 4563; GC4563, pre-incubation in water", "value": 0.5, "unit": "µg/mL"},
      {"measurement": "MIC", "setting": "E. faecalis GC 2267; GC2267, pre-incubation in human serum", "value": 2, "unit": "µg/mL"},
      {"measurement": "MIC", "setting": "E. faecalis GC 2267; GC2267, pre-incubation in mouse serum", "value": 0.5, "unit": "µg/mL"},
      {"measurement": "MIC", "setting": "E. faecalis GC 2267; GC2267, pre-incubation in water", "value": 2, "unit": "µg/mL"},
      {"measurement": "MIC", "setting": "S. pneumoniae+ GC 4465; pre-incubation in human serum", "value": 0.5, "unit": "µg/mL"},
      {"measurement": "MIC", "setting": "S. pneumoniae+ GC 4465; pre-incubation in mouse serum", "value": 0.5, "unit": "µg/mL"},
      {"measurement": "MIC", "setting": "S. pneumoniae+ GC 4465; pre-incubation in water", "value": 0.5, "unit": "µg/mL"},
      {"measurement": "MIC", "setting": "E. faecium GC 2243; GC2243, pre-incubation in human serum", "value": 1, "unit": "µg/mL"},
      {"measurement": "MIC", "setting": "E. faecium GC 2243; GC2243, pre-incubation in mouse serum", "value": 0.25, "unit": "µg/mL"},
      {"measurement": "MIC", "setting": "E. faecium GC 2243; GC2243, pre-incubation in water", "value": 0.5, "unit": "µg/mL"},
      {"measurement": "MIC", "setting": "S. typhimurium GC 2172; pre-incubation in human serum", "value": 64, "unit": "µg/mL"},
      {"measurement": "MIC", "setting": "S. typhimurium GC 2172; pre-incubation in mouse serum", "value": 1, "unit": "µg/mL"},
      {"measurement": "MIC", "setting": "S. typhimurium GC 2172; pre-incubation in water", "value": "> 64", "unit": "µg/mL"},
      {"measurement": "MIC", "setting": "E. coli GC 2232; GC2232, pre-incubation in human serum", "value": 4, "unit": "µg/mL"},
      {"measurement": "MIC", "setting": "E. coli GC 2232; GC2232, pre-incubation in mouse serum", "value": 0.5, "unit": "µg/mL"},
      {"measurement": "MIC", "setting": "E. coli GC 2232; GC2232, pre-incubation in water", "value": 16, "unit": "µg/mL"},
      {"measurement": "MIC", "setting": "S. aureus GC 6466; GC6466, pre-incubation in human serum", "value": 0.5, "unit": "µg/mL"},
      {"measurement": "MIC", "setting": "S. aureus GC 6466; GC6466, pre-incubation in mouse serum", "value": 0.5, "unit": "µg/mL"},
      {"measurement": "MIC", "setting": "S. aureus GC 6466; GC6466, pre-incubation in water", "value": 0.5, "unit": "µg/mL"},
      {"measurement": "MIC", "setting": "S. pneumoniae* GC 4465; pre-incubation in human serum", "value": 0.25, "unit": "µg/mL"},
      {"measurement": "MIC", "setting": "S. pneumoniae* GC 4465; pre-incubation in mouse serum", "value": 0.12, "unit": "µg/mL"},
      {"measurement": "MIC", "setting": "S. pneumoniae* GC 4465; pre-incubation in water", "value": 0.12, "unit": "µg/mL"},
      {"measurement": "MIC", "setting": "E. coli GC 3226; GC3226, pre-incubation in human serum", "value": 8, "unit": "µg/mL"},
      {"measurement": "MIC", "setting": "E. coli GC 3226; GC3226, pre-incubation in mouse serum", "value": 0.5, "unit": "µg/mL"},
      {"measurement": "MIC", "setting": "E. coli GC 3226; GC3226, pre-incubation in water", "value": 32, "unit": "µg/mL"},
      {"measurement": "MIC", "setting": "S. epidermidis GC 4935; GC4935, pre-incubation in human serum", "value": 1, "unit": "µg/mL"},
      {"measurement": "MIC", "setting": "S. epidermidis GC 4935; GC4935, pre-incubation in mouse serum", "value": 0.5, "unit": "µg/mL"},
      {"measurement": "MIC", "setting": "S. epidermidis GC 4935; GC4935, pre-incubation in water", "value": 1, "unit": "µg/mL"},
      {"measurement": "MIC", "setting": "c. albicans GC 3066; Candida albicans, GC3066", "value": "> 64", "unit": "µg/mL"},
      {"measurement": "MIC", "setting": "c. albicans GC 3066; pre-incubation in human serum", "value": ">64", "unit": "UG/ML"},
      {"measurement": "MIC", "setting": "c. albicans GC 3066; pre-incubation in mouse serum", "value": ">64", "unit": "UG/ML"},
      {"measurement": "MIC", "setting": "E. coli GC 2272; GC2272, pre-incubation in human serum", "value": 4, "unit": "µg/mL"},
      {"measurement": "MIC", "setting": "E. coli GC 2272; GC2272, pre-incubation in mouse serum", "value": 0.5, "unit": "µg/mL"},
      {"measurement": "MIC", "setting": "E. coli GC 2272; GC2272, pre-incubation in water", "value": 8, "unit": "µg/mL"},
      {"measurement": "MIC", "setting": "S. aureus GC 2216; GC2216, pre-incubation in human serum", "value": 0.5, "unit": "µg/mL"},
      {"measurement": "MIC", "setting": "S. aureus GC 2216; GC2216, pre-incubation in mouse serum", "value": 0.5, "unit": "µg/mL"},
      {"measurement": "MIC", "setting": "S. aureus GC 2216; GC2216, pre-incubation in water", "value": 1, "unit": "µg/mL"},
      {"measurement": "MIC", "setting": "E. faecium GC 4556; GC4556, pre-incubation in human serum", "value": 2, "unit": "µg/mL"},
      {"measurement": "MIC", "setting": "E. faecium GC 4556; GC4556, pre-incubation in mouse serum", "value": 0.5, "unit": "µg/mL"},
      {"measurement": "MIC", "setting": "E. faecium GC 4556; GC4556, pre-incubation in water", "value": 2, "unit": "µg/mL"},
      {"measurement": "MIC", "setting": "E. coli GC 2234; GC2234, pre-incubation in human serum", "value": 8, "unit": "µg/mL"},
      {"measurement": "MIC", "setting": "E. coli GC 2234; GC2234, pre-incubation in mouse serum", "value": 0.5, "unit": "µg/mL"},
      {"measurement": "MIC", "setting": "E. coli GC 2234; GC2234, pre-incubation in water", "value": 16, "unit": "µg/mL"}
    ]}
  ]
}
